Test results from patent US8814837B2, “Simple device for treating tinea unguium” (priority 2008, dated 2014).
Several values for one entry are separate records, joined by “and”; a condition that tells them apart may be missing. Identical values can stand only once. Counter-ions that a name gives are not always drawn.

Legend:
Assay type in all cases: in vivo
[1] = Terbinafine hydrochloride content in the nail tip after the dome-shaped applicator was bonded to the nail; settings: 0.15 mL of 1% solution, two days; for terbinafine hydrochloride content in the nail: nail tip, individual samples No. 1-6; for concentration at 2 days: nail (tip), topical, 1% solution, average of No. 1-6
Procedure: The dome-shaped applicator of the first type as shown in FIG. 2 (inside volume: 0.15 mL) was used. A commercially available instantaneous adhesive agent (cyanoacrylate-based adhesive) was applied to the flange of the applicator for bonding. The flange was then hermetically bonded to a surface of a nail. Using a syringe (inside volume: 0.5 mL), 0.15 mL of a solution having a terbinafine hydrochloride content of 1% was injected through the feed port. The feed port was then opened so that the inside and outside of the applicator was in fluid communication with each other. Thus, the inside air was released and the inside of the dome-shaped applicator reached ambient pressure (1.0 atm.). The applicator was maintained as such for two days and then removed from the nail. A part of the tip of the nail was cut and measured for the concentration of the terbinafine hydrochloride.
(§1) The dome-shaped applicator of the second type as shown in FIG. 8 (inside volume: 0.15 mL) was used. A commercially available instantaneous adhesive agent (cyanoacrylate-based adhesive) was applied to the flange of the applicator for bonding. The flange was then hermetically bonded to a surface of a nail. Using a syringe (inside volume: 0.5 mL), 0.15 mL of a solution having a terbinafine hydrochloride content of 1% was injected through the thick film portion near the opening of the dome-shaped applicator.
Because the dome-shaped applicator was hermetically bonded to the nail, the thin film portion in the upper part thereof inflated. […] The dome-shaped applicator was maintained in the hermetically bonded state for two days and then removed from the nail. A part of the tip of the nail was cut and measured for the concentration of the terbinafine hydrochloride.
as §1, with “the third” for “the second”, “FIG. 15” for “FIG. 8”, “0.15 ml.)” for “0.15 mL)”, “applicator. Because the dome-shaped applicator was hermetically bonded to the nail, the thin film portion in the upper part thereof was inverted and protruded as shown in FIG. 15(B).” for “applicator.”
The dome-shaped applicator was maintained in the hermetically bonded state for two days and then removed from the nail. A part of the tip of the nail was cut and measured for the concentration of the terbinafine hydrochloride.

[2] = Terbinafine hydrochloride content in the nail after applying a 1% external medicine to the nail surface; settings: 1% external medicine applied to nail surface twice a day for 4 weeks
Excerpt: Incidentally, a 1% terbinafine hydrochloride external medicine was applied to a surface of a nail twice a day continuously for 4 weeks. A part of the tip of the nail was then cut and measured for the concentration of the terbinafine hydrochloride.

[3] = Terbinafine hydrochloride content in the nail tip after oral administration of a terbinafine hydrochloride tablet
Procedure: As conventionally used as a treatment method for tinea unguium, a terbinafine hydrochloride tablet was orally administered once a day continuously for 4 weeks. A part of the tip of the nail was then cut and measured for the concentration of the terbinafine hydrochloride in the same manner as in Examples 1 to 3.
In Comparative Example 1, the measurement of terbinafine hydrochloride was carried out after administration period of 4 weeks, because the terbinafine hydrochloride was not detected after administration of 2 days.

concentration at 2 days ([1]; Example 1: first-type applicator, 1.0 atm): 43800 ng/g | concentration at 2 days ([1]; Example 2: second-type applicator, 1.3 atm): 68500 ng/g | concentration at 2 days ([1]; Example 3: third-type applicator, 1.3 atm): 63900 ng/g | penetration of terbinafine hydrochloride into a surface region of the nail [2]: slightly penetrate | concentration at 4 weeks ([3]; human, nail (tip), po, Comparative Example 1: tablet orally once a day for 4 weeks, average of No. 1-6): 380 ng/g | terbinafine hydrochloride detected in the nail ([3]; oral tablet, after administration of 2 days): not detected
SMILES: CN(C/C=C/C#CC(C)(C)C)Cc1cccc2ccccc12 [terbinafine hydrochloride]
terbinafine hydrochloride content in the nail ([1]; Example 1: first-type applicator, ambient pressure (1.0 atm)): 27.0 ng/mg and 40.8 ng/mg and 67.6 ng/mg and 42.9 ng/mg and 52.0 ng/mg and 32.4 ng/mg | terbinafine hydrochloride content in the nail ([1]; Example 2: second-type applicator, inside pressure 1.3 atm): 43.7 ng/mg and 66.1 ng/mg and 88.8 ng/mg and 68.6 ng/mg and 104.9 ng/mg and 38.9 ng/mg | terbinafine hydrochloride content in the nail ([1]; Example 3: third-type applicator, inside pressure 1.3 atm): 41.5 ng/mg and 67.2 ng/mg and 86.3 ng/mg and 70.2 ng/mg and 75.8 ng/mg and 42.3 ng/mg | terbinafine hydrochloride detected in a deep part of the nail [2]: Almost no terbinafine hydrochloride was detected | terbinafine hydrochloride content in the nail ([3]; Comparative Example 1: tablet orally once a day for 4 weeks, nail tip, individual samples No. 1-6, hydrochloride): 0.24 ng/mg and 0.38 ng/mg and 0.15 ng/mg and 0.28 ng/mg and 0.45 ng/mg and 0.11 ng/mg
